pEC50, pIC50: −log10 of the molar value.

What is called pIC50 is −log10 of the IC50, conventionally taken in molar units. By pEC50 is commonly meant the EC50 on a negative log10 scale, so that one unit is a factor of ten. A lower pEC50 goes with a high EC50.

The target of assay [1] is Human immunodeficiency virus type 1 integrase (Human immunodeficiency virus 1, UniProt Q7ZJM1). The assay is described as follows: Inhibition of recombinant HIV1 integrase strand transfer activity.
The test system of assay [2] is MT4. Nature of the assay: Antiviral activity against HIV1 3b in human MT4 cells. It is filed as functional, cell-based.
Assay [3] has as its system MT4. The assay is described as follows: Cytotoxic activity against human MT4 cells infected with HIV1 by MTT assay. Type of assay: functional. A general note: Tetrazolium dyes change colour on reduction, which living cells bring about.

Sequence of Human immunodeficiency virus type 1 integrase (Q7ZJM1 whole entry): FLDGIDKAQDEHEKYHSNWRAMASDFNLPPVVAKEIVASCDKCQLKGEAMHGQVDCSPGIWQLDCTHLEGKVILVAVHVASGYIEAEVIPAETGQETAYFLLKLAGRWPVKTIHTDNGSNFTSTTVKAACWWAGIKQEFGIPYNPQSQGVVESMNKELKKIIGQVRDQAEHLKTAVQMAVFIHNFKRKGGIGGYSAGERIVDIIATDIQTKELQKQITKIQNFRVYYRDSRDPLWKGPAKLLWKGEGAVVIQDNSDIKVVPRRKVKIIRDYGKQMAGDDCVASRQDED

With `O=C(NCc1ccc(F)cc1)c1nc(N2CCCCS2(=O)=O)c2cccnc2c1O`, the pIC50 in assay [1] was 7.64. The compound further gave a negative-log EC50 (pEC50) in assay [2] of 8.44. The compound further had an Activity in assay [3] of 0.7 µM.
Consider `O=C(O)c1cn(CCO)c2ccc(Cc3cccc(Cl)c3F)cc2c1=O`, for which, in assay [1], the negative logarithm of the IC50 (pIC50) was 7.62. The same compound gave a pEC50 in assay [2] of 7.12. For the same compound, in assay [3], the Activity is over 15 µM.
Take `CC(C)[C@@H](CO)n1cc(C(=O)O)c(=O)c2cc(Cc3cccc(Cl)c3F)ccc21`: the pEC50 in assay [2] is 8.12. The compound further gave an Activity in assay [3] of 14 µM.
Take `COc1cc2c(cc1Cc1cccc(Cl)c1F)c(=O)c(C(=O)O)cn2CCO`: in assay [1], the pIC50 was 8.04. In assay [2], the negative-log EC50 (pEC50) is 7.77. Besides, the Activity in assay [3] was 5.3 µM.
The compound `COc1cc2c(cc1Cc1cccc(Cl)c1F)c(=O)c(C(=O)O)cn2[C@H](CO)C(C)C` had a pEC50 in assay [2] of 9.05. Also, in assay [3], the Activity turned out to be 4 µM.
On to `O=C(O)c1cnc2ccc(Cc3ccccc3)cc2c1O`, for which, in assay [1], the pIC50 was 5.80. Also, the pEC50 in assay [2] is under 4.52. In assay [3], this compound came in with an Activity of over 30 µM.
In the same order, the values of `O=C(O)c1c[nH]c2ccc(Cc3cccc(Cl)c3F)cc2c1=O` are 7.36, 6.09 and over 12 µM.

The values above are taken from ChEMBL document CHEMBL1138174, “Novel HIV-1 integrase inhibitors derived from quinolone antibiotics” (J Med Chem, 2006).
